Consider 26 molecules from patent US9708333B2, “Fused bicyclic 1,2,4-triazine compounds as TAM inhibitors” (Incyte Corporation, priority 2015, dated 2017).

Bounds are passed on as bounds.

c-Mer, sequence (Q12866 21-999): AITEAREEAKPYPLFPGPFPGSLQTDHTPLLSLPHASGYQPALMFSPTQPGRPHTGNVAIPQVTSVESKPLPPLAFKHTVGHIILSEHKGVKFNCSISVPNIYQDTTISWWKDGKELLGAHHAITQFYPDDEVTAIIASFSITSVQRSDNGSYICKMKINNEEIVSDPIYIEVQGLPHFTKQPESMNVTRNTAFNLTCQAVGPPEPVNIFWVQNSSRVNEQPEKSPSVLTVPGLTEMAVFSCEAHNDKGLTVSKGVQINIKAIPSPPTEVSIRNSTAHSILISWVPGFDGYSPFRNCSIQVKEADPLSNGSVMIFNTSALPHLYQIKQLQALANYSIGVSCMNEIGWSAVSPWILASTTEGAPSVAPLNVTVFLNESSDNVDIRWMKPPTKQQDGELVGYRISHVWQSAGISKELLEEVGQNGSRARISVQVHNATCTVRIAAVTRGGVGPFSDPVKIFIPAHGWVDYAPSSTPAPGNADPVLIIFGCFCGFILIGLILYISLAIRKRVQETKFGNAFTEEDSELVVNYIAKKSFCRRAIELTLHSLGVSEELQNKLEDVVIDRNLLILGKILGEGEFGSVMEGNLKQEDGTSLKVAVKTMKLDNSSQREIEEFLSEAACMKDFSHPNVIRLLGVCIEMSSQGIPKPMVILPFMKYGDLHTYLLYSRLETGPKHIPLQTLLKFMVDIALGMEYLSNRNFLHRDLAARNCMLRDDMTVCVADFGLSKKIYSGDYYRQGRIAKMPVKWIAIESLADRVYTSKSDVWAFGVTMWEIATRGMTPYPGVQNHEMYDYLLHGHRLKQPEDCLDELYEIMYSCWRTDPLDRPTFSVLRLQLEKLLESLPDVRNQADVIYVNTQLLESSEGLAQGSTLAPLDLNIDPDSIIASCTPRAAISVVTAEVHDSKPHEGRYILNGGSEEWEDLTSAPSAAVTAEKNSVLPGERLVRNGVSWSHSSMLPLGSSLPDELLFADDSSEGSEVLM
Tyro3, sequence (Q06418 41-890): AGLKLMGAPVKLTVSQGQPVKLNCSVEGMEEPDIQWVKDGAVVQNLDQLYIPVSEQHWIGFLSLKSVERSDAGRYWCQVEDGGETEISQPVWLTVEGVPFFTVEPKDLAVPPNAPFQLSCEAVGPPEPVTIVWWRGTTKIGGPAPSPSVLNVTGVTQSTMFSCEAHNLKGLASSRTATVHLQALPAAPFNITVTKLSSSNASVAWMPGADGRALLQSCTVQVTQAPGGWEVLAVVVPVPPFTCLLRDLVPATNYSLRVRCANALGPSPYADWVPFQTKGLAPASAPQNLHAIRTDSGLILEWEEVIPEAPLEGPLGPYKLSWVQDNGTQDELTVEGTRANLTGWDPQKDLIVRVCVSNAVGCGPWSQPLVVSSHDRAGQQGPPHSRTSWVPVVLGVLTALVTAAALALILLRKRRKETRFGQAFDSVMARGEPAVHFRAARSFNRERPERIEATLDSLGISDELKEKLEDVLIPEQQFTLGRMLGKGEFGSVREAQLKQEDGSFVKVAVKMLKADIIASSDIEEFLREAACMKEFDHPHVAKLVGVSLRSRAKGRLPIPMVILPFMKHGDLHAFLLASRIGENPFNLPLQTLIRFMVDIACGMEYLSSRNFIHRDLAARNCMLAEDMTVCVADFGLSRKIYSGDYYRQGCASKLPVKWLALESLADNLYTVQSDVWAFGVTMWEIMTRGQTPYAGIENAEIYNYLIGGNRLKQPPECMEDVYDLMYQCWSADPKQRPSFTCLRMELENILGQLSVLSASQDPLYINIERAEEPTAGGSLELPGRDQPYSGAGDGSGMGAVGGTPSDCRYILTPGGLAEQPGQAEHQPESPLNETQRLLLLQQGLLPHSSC

For one test, the target named is JAK1 (Homo sapiens (Human), UniProt P23458).
JAK1, sequence (P23458 whole entry, species assumed): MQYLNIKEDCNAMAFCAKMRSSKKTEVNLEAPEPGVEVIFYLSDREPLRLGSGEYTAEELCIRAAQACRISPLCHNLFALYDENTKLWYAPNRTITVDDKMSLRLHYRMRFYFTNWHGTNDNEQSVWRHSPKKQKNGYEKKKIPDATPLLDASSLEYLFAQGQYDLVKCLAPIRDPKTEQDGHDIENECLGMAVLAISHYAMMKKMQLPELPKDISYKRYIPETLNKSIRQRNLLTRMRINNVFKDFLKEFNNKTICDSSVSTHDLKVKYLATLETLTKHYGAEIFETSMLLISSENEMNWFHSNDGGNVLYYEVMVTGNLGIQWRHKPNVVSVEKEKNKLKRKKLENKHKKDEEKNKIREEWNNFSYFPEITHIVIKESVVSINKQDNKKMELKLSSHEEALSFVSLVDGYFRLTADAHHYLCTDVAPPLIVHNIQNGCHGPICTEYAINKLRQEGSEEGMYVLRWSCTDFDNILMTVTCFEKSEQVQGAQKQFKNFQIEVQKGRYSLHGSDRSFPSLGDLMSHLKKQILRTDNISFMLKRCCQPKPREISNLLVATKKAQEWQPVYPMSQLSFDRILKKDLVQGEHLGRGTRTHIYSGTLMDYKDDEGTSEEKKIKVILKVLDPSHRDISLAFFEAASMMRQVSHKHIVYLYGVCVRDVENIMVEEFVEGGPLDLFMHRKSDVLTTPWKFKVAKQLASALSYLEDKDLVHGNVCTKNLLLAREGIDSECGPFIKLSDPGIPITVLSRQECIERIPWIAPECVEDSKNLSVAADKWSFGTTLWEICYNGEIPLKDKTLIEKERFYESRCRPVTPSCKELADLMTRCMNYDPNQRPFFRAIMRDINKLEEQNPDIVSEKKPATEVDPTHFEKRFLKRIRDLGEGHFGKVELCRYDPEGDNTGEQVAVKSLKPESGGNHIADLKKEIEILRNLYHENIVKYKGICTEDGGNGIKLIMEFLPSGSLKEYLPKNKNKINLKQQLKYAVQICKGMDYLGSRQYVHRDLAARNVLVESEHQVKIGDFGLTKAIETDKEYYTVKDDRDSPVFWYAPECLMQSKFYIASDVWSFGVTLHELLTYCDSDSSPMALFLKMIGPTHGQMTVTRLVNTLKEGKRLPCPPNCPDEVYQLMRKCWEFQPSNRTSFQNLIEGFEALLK
Assay: not given
Conditions: 1 mM ATP; cited from earlier work.
The IC50 is the concentration that inhibits the measured activity by half. As for “trans-7-((4-Aminocyclohexyl)methyl)-5-(4-fluorophenyl)-N-(3-phenylpropyl)imidazo [5,1-f][1,2,4]triazin-2-amine [Example 14]”, the IC50 was below 0.01 µM.

The same test, now with this note: selectivity ratio, IC50 at 1 mM ATP; cited from earlier work.
On to `CCNCc1cc(O[C@H]2CC[C@@H](N3CC(CC#N)(n4cc(-c5ncnc6[nH]ccc56)cn4)C3)CC2)nc(C(F)(F)F)c1` [Compound 19, {1-(cis-4-{[4-[(ethylamino)methyl]-6-(trifluoromethyl)pyridin-2-yl]oxy}cyclohexyl)-3-[4-(7H-pyrrolo [2,3-d]pyrimidin-4-yl)-1H-pyrazol-1-yl]azetidin-3-yl}acetonitrile], for which the JAK2/JAK1 is given as above 10. For `C[C@@H](O)c1nc2cnc3ccsc3c2n1[C@H]1CC[C@H](CC#N)OC1` [Compound 1, ((2R,5S)-5-{2-[(1R)-1-hydroxyethyl]-1H-imidazo[4,5-d]thieno[3,2-b]pyridin-1-yl}tetrahydro-2H-pyran-2-yl)acetonitrile], the JAK2/JAK1 is above 10. Consider `N#CC[C@]1(n2cc(-c3ncnc4[nH]ccc34)cn2)C[C@H](N2CCC(Oc3cc(CCO)cc(C(F)(F)F)n3)CC2)C1` [Compound 26, {trans-3-(4-{[4-(2-hydroxyethyl)-6-(trifluoromethyl)pyridin-2-yl]oxy}piperidin-1-yl)-1-[4-(7H-pyrrolo[2,3-d]pyrimidin-4-yl)-1H-pyrazol-1-yl]cyclobutyl} acetonitrile], for which the JAK2/JAK1 is above 10. Regarding `C[C@@H](O)CNCc1cc(OC2CCN([C@H]3C[C@](CC#N)(n4cc(-c5ncnc6[nH]ccc56)cn4)C3)CC2)nc(C(F)(F)F)c1` [Compound 24, {trans-3-(4-{[4-({[(2R)-2-hydroxypropyl]amino}methyl)-6-(trifluoromethyl)pyridin-2-yl]oxy}piperidin-1-yl)-1-[4-(7H-pyrrolo[2,3-d]pyrimidin-4-yl)-1H-pyrazol-1-yl]cyclobutyl} acetonitrile], the JAK2/JAK1 was above 10. With `N#CCC1(n2cc(-c3ncnc4[nH]ccc34)cn2)CN([C@H]2CC[C@@H](Oc3cc(CCO)nc(C(F)(F)F)n3)CC2)C1` [Compound 18, {1-(cis-4-{[6-(2-hydroxyethyl)-2-(trifluoromethyl)pyrimidin-4-yl]oxy}cyclohexyl)-3-[4-(7H-pyrrolo [2,3-d]pyrimidin-4-yl)-1H-pyrazol-1-yl]azetidin-3-yl}acetonitrile], the JAK2/JAK1 is given as above 10.

With `C[C@H](NC(=O)c1cc(F)c(N2CC(CC#N)(n3cc(-c4ncnc5[nH]ccc45)cn3)C2)cc1F)C(F)(F)F` [Compound 16, 4-{3-(cyanomethyl)-3-[4-(7H-pyrrolo [2,3-d]pyrimidin-4-yl)-1H-pyrazol-1-yl]azetidin-1-yl}-2,5-difluoro-N-[(1S)-2,2,2-trifluoro-1-methylethyl] benzamide], the JAK2/JAK1 is recorded as above 10. Regarding `C[C@@H](CO)NCc1cc(OC2CCN([C@H]3C[C@](CC#N)(n4cc(-c5ncnc6[nH]ccc56)cn4)C3)CC2)nc(C(F)(F)F)c1` [Compound 23, {trans-3-(4-{[4-({[(1S)-2-hydroxy-1-methylethyl]amino}methyl)-6-(trifluoromethyl)pyridin-2-yl]oxy}piperidin-1-yl)-1-[4-(7H-pyrrolo[2,3-d]pyrimidin-4-yl)-1H-pyrazol-1-yl]cyclobutyl} acetonitrile], the JAK2/JAK1 was above 10.

As for `N#CCC1(n2cc(-c3ncnc4[nH]ccc34)cn2)CN(C2CCN(C(=O)c3ccnc(C(F)(F)F)n3)CC2)C1` [Compound 9, [3-[4-(7H-pyrrolo[2,3-d]pyrimidin-4-yl)-1H-pyrazol-1-yl]-1-(1-{[2-(trifluoromethyl)pyrimidin-4-yl]carbonyl}piperidin-4-yl)azetidin-3-yl]acetonitrile], the JAK2/JAK1 was above 10.

Consider `N#CC[C@]1(n2cc(-c3ncnc4[nH]ccc34)cn2)C[C@H](N2CCN(C(=O)c3ccnc(C(F)(F)F)n3)CC2)C1` [Compound 10, [trans-1-[4-(7H-pyrrolo[2,3-d]pyrimidin-4-yl)-1H-pyrazol-1-yl]-3-(4-{[2-(trifluoromethyl)pyrimidin-4-yl]carbonyl}piperazin-1-yl)cyclobutyl] acetonitrile], for which the JAK2/JAK1 was above 10. `N#CCC1(n2cc(-c3ncnc4[nH]ccc34)cn2)CN(C2CCN(C(=O)Nc3ccc(F)cc3C(F)(F)F)CC2)C1` [Compound 8, 4-{3-(Cyanomethyl)-3-[4-(7H-pyrrolo[2,3-d]pyrimidin-4-yl)-1H-pyrazol-1-yl]azetidin-1-yl}-N-[4-fluoro-2-(trifluoromethyl)phenyl]piperidine-1-carboxamide]: the JAK2/JAK1 is on record as above 10. As for `N#CCC(CN1CCN(C(=O)c2ccc(C#N)cc2F)CC1)n1cc(-c2ncnc3[nH]ccc23)cn1` (stereo not shown) [Compound 5, 4-[(4-{3-cyano-2-[4-(7H-pyrrolo[2,3-d]pyrimidin-4-yl)-1H-pyrazol-1-yl]propyl}piperazin-1-yl)carbonyl]-3-fluorobenzonitrile], the JAK2/JAK1 is on record as above 10. Regarding `CCCCNc1ncc2c(-c3ccc(F)cc3)nc(C[C@H]3CC[C@H](N)CC3)n2n1` [Example 13, trans-7-[(4-Aminocyclohexyl)methyl]-N-butyl-5-(4-fluorophenyl)imidazo[5,1-f][1,2,4]triazin-2-amine], the JAK2/JAK1 was above 10. Regarding `N#CCC(C1CCN(c2cccc(Cl)n2)C1)n1cc(-c2ncnc3[nH]ccc23)cn1` (stereo not shown) [Compound 3, 3-[1-(6-chloropyridin-2-yl)pyrrolidin-3-yl]-3-[4-(7H-pyrrolo[2,3-d]pyrimidin-4-yl)-1H-pyrazol-1-yl]propanenitrile], the JAK2/JAK1 is above 10. As for `N#CCC1(n2cc(-c3ncnc4[nH]ccc34)cn2)CN(C2CCN(C(=O)c3ccnc(C(F)(F)F)c3F)CC2)C1` [Compound 7, {1-{1-[3-Fluoro-2-(trifluoromethyl)isonicotinoyl]piperidin-4-yl}-3-[4-(7H-pyrrolo[2,3-d]pyrimidin-4-yl)-1H-pyrazol-1-yl]azetidin-3-yl}acetonitrile], the JAK2/JAK1 is reported as above 10. Regarding `CC(C)(O)c1cc(O[C@H]2CC[C@@H](N3CC(CC#N)(n4cc(-c5ncnc6[nH]ccc56)cn4)C3)CC2)nc(C(F)(F)F)c1` [Compound 20, {1-(cis-4-{[4-(1-hydroxy-1-methylethyl)-6-(trifluoromethyl)pyridin-2-yl]oxy}cyclohexyl)-3-[4-(7H-pyrrolo [2,3-d]pyrimidin-4-yl)-1H-pyrazol-1-yl]azetidin-3-yl}acetonitrile], the JAK2/JAK1 is reported as above 10. `C[C@H](O)CNCc1cc(OC2CCN([C@H]3C[C@](CC#N)(n4cc(-c5ncnc6[nH]ccc56)cn4)C3)CC2)nc(C(F)(F)F)c1` [Compound 25, {trans-3-(4-{[4-({[(2S)-2-hydroxypropyl]amino}methyl)-6-(trifluoromethyl)pyridin-2-yl]oxy}piperidin-1-yl)-1-[4-(7H-pyrrolo[2,3-d]pyrimidin-4-yl)-1H-pyrazol-1-yl]cyclobutyl} acetonitrile]: the JAK2/JAK1 was above 10. For the molecule `N#CCC(CN1CCN(C(=O)c2ccc(C#N)cc2F)CC1)n1ccc(-c2ncnc3[nH]ccc23)c1` (stereo not shown) [Compound 6, 4-[(4-{3-cyano-2-[3-(7H-pyrrolo[2,3-d]pyrimidin-4-yl)-1H-pyrrol-1-yl]propyl}piperazin-1-yl)carbonyl]-3-fluorobenzonitrile], the JAK2/JAK1 was above 10. For the molecule `N#CCC(C1CCN(c2nc3cccnc3o2)C1)n1cc(-c2ncnc3[nH]ccc23)cn1` (stereo not shown) [Compound 4, 3-(1-[1,3]oxazolo[5,4-b]pyridin-2-ylpyrrolidin-3-yl)-3-[4-(7H-pyrrolo[2,3-d]pyrimidin-4-yl)-1H-pyrazol-1-yl]propanenitrile], the JAK2/JAK1 is above 10. For `N[C@H]1CC[C@H](Cc2nc(-c3ccc(F)cc3)c3cnc(NCCCc4ccccc4)nn23)CC1` [Example 14, trans-7-((4-Aminocyclohexyl)methyl)-5-(4-fluorophenyl)-N-(3-phenylpropyl)imidazo [5,1-f][1,2,4]triazin-2-amine], the JAK2/JAK1 is given as above 10.

A further test addresses Tyro3 (Homo sapiens (Human), UniProt Q06418). In words: TAM Enzymatic Assay (HTRF), Tyro3. The class given is biochemical. Conditions: 0.366 nM Tyro3, 60 min. (In general: Time-resolved FRET reads energy transfer from a long-lived donor to a nearby acceptor.)
Description: The kinase assay buffer contained 50 mM HEPES, pH7.5, 10 mM MgCl2, 1 mM EGTA, 0.01% NP-40 and 2 mM DTT. 0.1 ul test compounds dissolved in DMSO were transferred from compound plates to white 384-well assay plates (Greiner [sequence] plates). […] 4 ul enzyme solution (or assay buffer for the enzyme blank) was added to the appropriate wells in each plate, and then 4 ul/well substrate solution was added to initiate the reaction. The plate was protected from light and incubated at room temperature for 60 min. […] The plate was incubated for 1 h at room temperature, and HTRF (homogenous time resolved fluorescence) signal was measured on a PHERAstar FS plate reader (BMG labtech). Percentage of inhibition was calculated for each concentration and IC50 value was generated from curve fitting with GraphPad Prism software.
In the case of `CCCCNc1ncc2c(-c3ccc(CN4CCN(C)CC4)cc3)nc([C@H]3CC[C@@H](O)CC3)n2n1` [1 (2nd peak, cis-), cis-4-(2-(Butylamino)-5-{4-[(4-methylpiperazin-1-yl)methyl]phenyl}imidazo[5,1-f][1,2,4]triazin-7-yl)cyclohexanol], the IC50 was 0.1 to 0.5 µM. The same measure, in the same setting: under `CCCCNc1ncc2c(-c3ccc(CN4CCOCC4)cc3)nc([C@H]3CC[C@H](O)CC3)n2n1` [2 (1st peak, trans-), trans-4-{2-(Butylamino)-5-[4-(morpholin-4-ylmethyl)phenyl]imidazo[5,1-f][1,2,4]triazin-7-yl}cyclohexanol] stands 0.1 to 0.5 µM.

Another test has as its target c-Mer (Homo sapiens (Human), UniProt Q12866). In words: TAM Enzymatic Assay (HTRF), c-Mer. The class given is biochemical. The following applies: 0.0625 nM c-Mer, ATP-containing substrate solution, 60 min.
`CCCCNc1ncc2c(-c3ccc(CN4CCN(C)CC4)cc3)nc([C@H]3CC[C@@H](O)CC3)n2n1` [1 (2nd peak, cis-), cis-4-(2-(Butylamino)-5-{4-[(4-methylpiperazin-1-yl)methyl]phenyl}imidazo[5,1-f][1,2,4]triazin-7-yl)cyclohexanol] gave a half-inhibitory concentration (IC50) of at most 0.1 µM.

Molecule `CCCCNc1ncc2c(-c3ccc(CN4CCOCC4)cc3)nc([C@H]3CC[C@H](O)CC3)n2n1` [2 (1st peak, trans-), trans-4-{2-(Butylamino)-5-[4-(morpholin-4-ylmethyl)phenyl]imidazo[5,1-f][1,2,4]triazin-7-yl}cyclohexanol] returned an IC50 of at most 0.1 µM. As for `CCCCNc1ncc2c(-c3ccc(CO)cc3)nc([C@H]3CC[C@H](O)CC3)n2n1` [3 (1st peak, trans-), trans-4-{2-(Butylamino)-5-[4-(hydroxymethyl)phenyl]imidazo[5,1-f][1,2,4]triazin-7-yl}cyclohexanol], the half-maximal inhibitory concentration (IC50) is at most 0.1 µM. Molecule `CCCCNc1ncc2c(-c3ccc(CO)cc3)nc([C@H]3CC[C@@H](O)CC3)n2n1` [3 (2nd peak, cis-), cis-4-{2-(Butylamino)-5-[4-(hydroxymethyl)phenyl]imidazo[5,1-f][1,2,4]triazin-7-yl}cyclohexanol] came in with an IC50 above 1 µM. The same measure, in the same setting: under `CCCCNc1ncc2c(-c3cccc(CO)c3)nc(C3CCC(O)CC3)n2n1` (single isomer, unassigned) [8 (1st peak), 4-{2-(Butylamino)-5-[3-(hydroxymethyl)phenyl]imidazo[5,1-f][1,2,4]triazin-7-yl}cyclohexanol] stands at most 0.1 µM.

For another test, the target named is PI3Kδ (Homo sapiens (Human), UniProt O00329).
PI3Kδ, sequence (O00329 whole entry, species assumed): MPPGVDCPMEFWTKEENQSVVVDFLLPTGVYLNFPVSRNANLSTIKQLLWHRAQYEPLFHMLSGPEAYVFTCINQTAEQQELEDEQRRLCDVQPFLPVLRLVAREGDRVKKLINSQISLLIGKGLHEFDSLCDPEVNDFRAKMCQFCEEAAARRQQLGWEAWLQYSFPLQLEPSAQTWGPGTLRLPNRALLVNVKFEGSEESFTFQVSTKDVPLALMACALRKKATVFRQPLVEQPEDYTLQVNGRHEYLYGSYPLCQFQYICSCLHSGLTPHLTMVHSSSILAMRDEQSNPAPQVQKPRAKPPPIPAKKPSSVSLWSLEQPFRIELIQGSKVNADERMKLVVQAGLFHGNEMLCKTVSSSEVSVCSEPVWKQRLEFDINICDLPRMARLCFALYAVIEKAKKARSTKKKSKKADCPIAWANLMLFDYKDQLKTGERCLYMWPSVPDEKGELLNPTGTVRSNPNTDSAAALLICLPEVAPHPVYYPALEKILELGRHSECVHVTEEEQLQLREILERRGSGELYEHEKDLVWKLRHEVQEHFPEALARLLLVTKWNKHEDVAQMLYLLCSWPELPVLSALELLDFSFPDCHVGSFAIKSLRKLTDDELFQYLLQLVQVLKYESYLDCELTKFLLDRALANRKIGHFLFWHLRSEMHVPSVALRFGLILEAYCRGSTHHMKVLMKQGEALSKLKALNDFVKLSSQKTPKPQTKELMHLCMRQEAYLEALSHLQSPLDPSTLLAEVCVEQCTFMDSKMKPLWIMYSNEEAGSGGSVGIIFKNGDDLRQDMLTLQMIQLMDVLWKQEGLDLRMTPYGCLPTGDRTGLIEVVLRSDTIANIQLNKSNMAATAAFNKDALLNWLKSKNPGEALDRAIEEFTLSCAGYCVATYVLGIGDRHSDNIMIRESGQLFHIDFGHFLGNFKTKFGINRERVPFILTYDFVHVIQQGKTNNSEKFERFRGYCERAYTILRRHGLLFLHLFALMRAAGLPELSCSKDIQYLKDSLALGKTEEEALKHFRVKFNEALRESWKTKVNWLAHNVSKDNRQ
PI3Kδ, sequence (P27986 whole entry partner, species assumed): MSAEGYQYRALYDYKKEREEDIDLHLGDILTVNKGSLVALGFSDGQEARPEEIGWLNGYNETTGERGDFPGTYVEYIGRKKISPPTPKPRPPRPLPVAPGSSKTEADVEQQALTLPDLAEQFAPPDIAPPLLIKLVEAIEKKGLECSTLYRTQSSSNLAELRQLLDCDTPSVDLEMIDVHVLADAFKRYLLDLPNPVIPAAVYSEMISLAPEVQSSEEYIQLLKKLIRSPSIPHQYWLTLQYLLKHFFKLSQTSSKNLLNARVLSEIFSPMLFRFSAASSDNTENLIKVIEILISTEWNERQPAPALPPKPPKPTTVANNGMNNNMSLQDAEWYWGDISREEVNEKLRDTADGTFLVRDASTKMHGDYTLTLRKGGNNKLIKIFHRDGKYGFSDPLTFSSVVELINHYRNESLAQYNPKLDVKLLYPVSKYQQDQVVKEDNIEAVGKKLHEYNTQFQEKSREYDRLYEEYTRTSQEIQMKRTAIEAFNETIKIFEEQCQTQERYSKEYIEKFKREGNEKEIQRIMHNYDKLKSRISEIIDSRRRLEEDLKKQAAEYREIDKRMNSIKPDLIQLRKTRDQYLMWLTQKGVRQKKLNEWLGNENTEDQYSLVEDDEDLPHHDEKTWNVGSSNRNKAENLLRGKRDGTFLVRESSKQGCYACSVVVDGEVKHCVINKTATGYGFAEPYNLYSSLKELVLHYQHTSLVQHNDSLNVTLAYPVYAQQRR
Assay: not given
The following applies: cited from earlier work.
Take `COc1c(C(C)n2nc(C)c3c(N)ncnc32)cc(Cl)c(C#N)c1C1CN(CCO)C1` (stereo not shown) [Compound 30, 4-[1-(4-amino-3-methyl-1H-pyrazolo[3,4-d]pyrimidin-1-yl)ethyl]-6-chloro-2-[1-(2-hydroxyethyl)azetidin-3-yl]-3-methoxybenzonitrile]: the IC50 was below 0.05 µM.
